Experimental findings from patent US20250367240A1, “DERIVATION OF GLUCOSE-RESPONSIVE INSULIN-SECRETING CELLS AND ORGANOIDS FROM HUMAN STOMACH CELLS AND THEIR USE TO TREAT DIABETES” (CORNELL UNIVERSITY, priority 2022, published 2025) are described below.

“Also recorded” adds a separate entry of the source.

What all share (assay type): cell-based, human
One assay has as its system Ngn3ER/PM-hGSCs. In words: Supplement screen to formulate serum-free medium for GINS differentiation. The following applies: day-7 post differentiation; for INS mRNA levels: single supplement in serum-free basal medium. On the procedure:
Ngn3ER/PM-hGSCs were seeded 5 days prior to differentiation in 96-well plate. To start differentiation, 1 μM 4-OH-TAM was added and incubated for 2 days. The culture medium was then changed to serum-free basal medium with one supplement and Doxycycline to activate Pdx1-Mafa expression. The basal serum-free medium for screens was prepared as follows: advanced DMEM/F12 (Thermo Fisher Scientific, 12634010) was supplemented with 10 mM HEPES (Thermo Fisher Scientific, 15-630-080), 1× GlutaMAX (Thermo Fisher Scientific, 35050061), 1× B-27 (Themo Fisher Scientific, 17504044), 1× N-2 (Thermo Fisher Scientific, 17502048), 25 μM Primocin, and 500 μM N-Acetyl-L-Cysteine (NAC) (Sigma-Aldrich, A9165). Seven days after supplement treatment, the following were (1) spontaneous clustering of nascent GINS cells by live imaging of mCherry^+ cells, and (2) qPCR of INS mRNA levels. Then multiple b-cell markers with qPCR on samples treated with Nicotinamide, Y-27632 and A8301 were analyzed.

In assay [1] the test system is GINS organoids. In words: Static glucose-stimulated insulin secretion (GSIS). The conditions noted are these: day-18 organoids donor #6; 10 nM glibenclamide or 0.5 mM diazoxide. On the procedure: Ten to twenty GINS organoids were sampled for each group. Organoids were washed with RPMI-1640 no nutrient medium (RPMIN, MyBioSource, MBS652918), and equilibrated in 3.3 mM glucose RPMIN for 2 hours. Organoids were incubated in low-glucose RPMIN for 1 hour, and supernatant was collected. Organoids were then incubated in high-glucose RPMIN for 1 hour, and supernatant was collected. For sequential glucose challenge, organoids were washed 2 times in RPMIN prior to the next stimulation. Secreted insulin was measured using the Stellux Chemi Human Insulin ELISA (ALPCO Diagnostics, 80-INSHU-CH10).

For assay [2], the system named is GINS organoids. In words: Dynamic GSIS with perifusion. The conditions noted are these: day-21 organoids, two donors; 100 ng/mL Liraglutide in 20 mM glucose; 30 mM KCl in 2 mM glucose. On the procedure: Twenty GINS organoids were sampled for each group. Organoids were washed with RPMIN and equilibrated in 1 mM glucose RPMIN for 2 hours at 37° C. incubator. The assay was performed in RPMIN on a temperature-controlled (37° C.) perifusion system (Biorep Technologies). Organoids were loaded in chambers and perfused at a flow rate of 100 μL/min in the following steps: (1) 48 min in 1 mM glucose, (2) 24 min in 2 mM glucose. (3) 36 min in 20 mM glucose, (4) 24 min in 20 mM glucose with 100 ng/mL Liraglutide (Cayman, 24727), (5) 48 min in 2 mM glucose, (6) 20 min in 2 mM glucose with 30 mM KCl. Secreted insulin was measured using the Stellux Chemi Human Insulin ELISA.

On to `Cc1cccc(-c2nn(C(=S)Nc3ccccc3)cc2-c2ccnc3ccccc23)n1` [A8301, 3-(6-methyl-2-pyridinyl)-N-phenyl-4-(4-quinolinyl)-1H-pyrazole-1-carbothioamide], for which the “spontaneous aggregation (clustering) of nascent GINS cells” value in the assay with Ngn3ER/PM-hGSCs (mCherry live imaging) is listed as “stimulated; also recorded: most observable clustering effect”. Besides, the “expression of several key b-cell transcription factors” value in the assay on Ngn3ER/PM-hGSCs (qPCR, vs no supplement control) is listed as “stimulated”.

In the case of `CC1=NS(=O)(=O)c2cc(Cl)ccc2N1` [Diazoxide], the “insulin secretion response of GINS organoids to the drug” value in the assay with GINS organoids [1] is given as “responded”.

With `COc1ccc(Cl)cc1C(=O)NCCc1ccc(S(=O)(=O)NC(=O)NC2CCCCC2)cc1` [Glibenclamide], the “insulin secretion response of GINS organoids to the drug” value with GINS organoids [1] is on record as “responded”.

As to `[Cl-].[K+]` [KCl], the “insulin secretion response of GINS cells to the agent, dynamic GSIS” value in the assay on GINS organoids [2] was “responded robustly”.

Turning to `NC(=O)c1cccnc1` [Nicotinamide, 3-pyridinecarboxamide], in the assay on Ngn3ER/PM-hGSCs (vs no supplement control), the “INS mRNA levels” value is listed as “significantly promoted; also recorded: significantly up-regulated”.

On to `C[C@@H](N)[C@H]1CC[C@H](C(=O)Nc2ccncc2)CC1.Cl.Cl` [Y-27632, trans-4-[(1R)-1-aminoethyl]-N-4-pyridinyl-Cyclohexanecarboxamide, dihydrochloride], for which the “INS mRNA levels” value with Ngn3ER/PM-hGSCs (vs no supplement control, dihydrochloride) was “significantly promoted; also recorded: significantly up-regulated”.
